From patent US20240059691A1 (KALVISTA PHARMACEUTICALS LIMITED, priority 2020, published 2024)

Assays:
Assay type in all cases: biochemical
Human Factor XIIa = Human Factor XIIa (Homo sapiens (Human), UniProt P00748); assay: Determination of FXIIa inhibition (fluorogenic substrate H-DPro-Phe-Arg-AFC, IC50 assay); settings: substrate H-DPro-Phe-Arg-AFC at Km, 25° C.; class scale A-G
How it was run: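 IC50 derived from % remaining activity, taken as the linear fluorescence rate over a 5 min read at 25° C. Substrate H-DPro-Phe-Arg-AFC was used at its Km (Michaelis-Menten) with human FXIIa and serial compound dilutions, 25° C.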

KLK1 = KLK1 (Homo sapiens (Human), UniProt P06870); assay: Determination of related protease inhibition: KLK1 (fluorogenic substrate at Km); settings: 25° C.
Method: Determination of Related Protease Inhibition
In vitro inhibition of related proteases was determined using an ([…] assay based on standard literature methods (see e.g. Shori et al., Biochem. Pharmacol., 1992, 43, 1209; Bouckaert et al., European Journal of Medicinal Chemistry 110 (2016) 181). Human serine protease enzymes Plasma Kallikrein, KLK1, FXa, Plasmin, Thrombin and Trypsin were assayed for enzymatic activity using an appropriate fluorogenic substrate at Km concentration, FXIa at fixed substrate concentration of 100 μM, and various concentrations of the test compound. Protease activity was measured by monitoring the accumulation of liberated fluorescence from the substrate over […]. The linear rate of fluorescence increase per minute was expressed as percentage (%) activity. IC50 values were calculated as the concentration of inhibitor giving 50% inhibition of the uninhibited enzyme activity (100%).

Plasma Kallikrein = Plasma Kallikrein (Homo sapiens (Human), UniProt P03952); assay: Determination of related protease inhibition: Plasma Kallikrein (fluorogenic substrate at Km); settings: 25° C., read-out: IC50 (human PKal)
How it was run: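 Fluorogenic kinetic assay: human enzyme, substrate at Km, titrated inhibitor; 5 min read at 25 °C; IC50 from % of uninhibited rate.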

Plasma Kallikrein, sequence (P03952 391-638): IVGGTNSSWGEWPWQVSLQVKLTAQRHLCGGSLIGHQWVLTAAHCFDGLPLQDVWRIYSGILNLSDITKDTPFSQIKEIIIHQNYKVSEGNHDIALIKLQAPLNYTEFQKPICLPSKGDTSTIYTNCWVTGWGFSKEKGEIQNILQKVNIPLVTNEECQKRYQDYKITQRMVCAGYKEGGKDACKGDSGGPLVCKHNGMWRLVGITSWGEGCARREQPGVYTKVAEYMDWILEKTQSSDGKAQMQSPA
Plasma Kallikrein, sequence (P03952 20-390 partner): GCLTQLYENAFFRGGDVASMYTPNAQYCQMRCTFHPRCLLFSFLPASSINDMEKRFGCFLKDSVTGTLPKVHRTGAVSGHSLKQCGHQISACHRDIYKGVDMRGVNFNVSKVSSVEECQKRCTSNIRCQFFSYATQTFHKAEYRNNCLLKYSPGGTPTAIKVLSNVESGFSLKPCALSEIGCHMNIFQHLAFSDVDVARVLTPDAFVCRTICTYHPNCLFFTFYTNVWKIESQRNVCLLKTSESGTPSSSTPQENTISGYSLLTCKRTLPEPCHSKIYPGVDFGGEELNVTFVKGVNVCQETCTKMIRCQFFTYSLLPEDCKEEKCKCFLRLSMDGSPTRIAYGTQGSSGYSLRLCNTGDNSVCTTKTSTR
Human Factor XIIa, sequence (P00748 373-615): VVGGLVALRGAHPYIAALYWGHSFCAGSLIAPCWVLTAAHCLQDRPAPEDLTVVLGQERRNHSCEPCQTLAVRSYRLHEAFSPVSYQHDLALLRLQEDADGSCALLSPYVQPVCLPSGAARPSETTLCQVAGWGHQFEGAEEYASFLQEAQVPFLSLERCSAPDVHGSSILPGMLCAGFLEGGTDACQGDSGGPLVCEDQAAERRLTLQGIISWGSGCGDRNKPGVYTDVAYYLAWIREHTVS
KLK1, sequence (P06870 25-262): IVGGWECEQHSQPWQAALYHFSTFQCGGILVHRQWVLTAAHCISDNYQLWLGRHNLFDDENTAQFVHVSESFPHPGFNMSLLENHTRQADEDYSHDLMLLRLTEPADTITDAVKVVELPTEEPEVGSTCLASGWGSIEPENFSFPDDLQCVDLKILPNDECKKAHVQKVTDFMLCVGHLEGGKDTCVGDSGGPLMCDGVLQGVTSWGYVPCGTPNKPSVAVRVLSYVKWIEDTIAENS

Row | SMILES | IC50 (Human Factor XIIa) [µM] | IC50 (KLK1) [µM] | IC50 (Plasma Kallikrein) [µM]
1 | Cc1cc(N2CCn3c(nnc3C(F)(F)F)C2C)ncc1CNc1cccc2c(N)nccc12 (single isomer, unassigned) [Example 1304, (R*)-N5-((4-methyl-6-(8-methyl-3-(trifluoromethyl)-5,6-dihydro-[1,2,4]triazolo[4,3-a]pyrazin-7(8H)-yl)pyridin-3-yl)methyl)isoquinoline-1,5-diamine] | 3 to 10 | 3 to 10 | –
2 | CC(C)c1cc(N2CCn3c(nnc3C(F)(F)F)C2)ncc1CNc1cccc2c(N)nccc12 [Example 1308, N5-((4-isopropyl-6-(3-(trifluoromethyl)-5,6-dihydro-[1,2,4]triazolo[4,3-a]pyrazin-7(8H)-yl)pyridin-3-yl)methyl)isoquinoline-1,5-diamine] | 1 to 3 | 3 to 10 | –
3 | CCc1cc(N2CCn3c(nnc3C(F)(F)F)C2)ncc1CNc1cccc2c(N)nccc12 [Example 1309, N5-((4-ethyl-6-(3-(trifluoromethyl)-5,6-dihydro-[1,2,4]triazolo[4,3-a]pyrazin-7(8H)-yl)pyridin-3-yl)methyl)isoquinoline-1,5-diamine] | 0.01 to 0.1 | > 4 | –
4 | Cc1cc(N2CCn3c(nnc3C(F)(F)F)C2)ncc1CNc1ccnc2[nH]c(Cl)cc12 [Example 1313, 2-Chloro-N-((4-methyl-6-(3-(trifluoromethyl)-5,6-dihydro-[1,2,4]triazolo[4,3-a]pyrazin-7(8H)-yl)pyridin-3-yl)methyl)-1H-pyrrolo[2,3-b]pyridin-4-amine] | 0.1 to 0.3 | > 4 | –
5 | CN1CCC(COc2cc(CNc3ccc4ncc(=O)[nH]c4c3)ccn2)CC1 [Example 4456] | 40 to 100 | – | 10 to 40
6 | CN1CCC(COc2cc(CNc3ccnc4[nH]ccc34)ccn2)CC1 [Example 4459, N-((2-((1-methylpiperidin-4-yl)methoxy)pyridin-4-yl)methyl)-1H-pyrrolo[2,3-b]pyridin-4-amine] | 10 to 40 | – | > 100
7 | CN1CCC(COc2cc(CNc3cnc4[nH]cc(C#N)c4c3)ccn2)CC1 [Example 4460] | 40 to 100 | – | > 100
8 | CN1CCC(COc2cc(CNc3cccc4c(N)ncc(F)c34)ccn2)CC1 [Example 4461, 4-fluoro-N5-((2-((1-methylpiperidin-4-yl)methoxy)pyridin-4-yl)methyl)isoquinoline-1,5-diamine] | 3 to 10 | – | > 40
9 | COc1cc(NCc2ccnc(OCC3CCN(C)CC3)c2)cc2ccncc12 [Example 4462, 8-methoxy-N-((2-((1-methylpiperidin-4-yl)methoxy)pyridin-4-yl)methyl)isoquinolin-6-amine] | 3 to 10 | – | > 100
10 | Cc1cc2c(NCc3ccnc(OCC4CCN(C)CC4)c3)ccnc2[nH]1 [Example 4465, 2-methyl-N-((2-((1-methylpiperidin-4-yl)methoxy)pyridin-4-yl)methyl)-1H-pyrrolo[2,3-b]pyridin-4-amine] | 1 to 3 | – | > 100
11 | COc1ccc(NCc2ccnc(OCC3CCN(C)CC3)c2)c2ccnc(N)c12 [Example 4470, 8-methoxy-N5-((2-((1-methylpiperidin-4-yl)methoxy)pyridin-4-yl)methyl)isoquinoline-1,5-diamine] | 10 to 40 | – | > 40
12 | Nc1nccc2c(NCc3ccnc(N4CCn5ccnc5C4)c3)cccc12 [Example 5436, N5-((2-(5,6-dihydroimidazo[1,2-a]pyrazin-7(8H)-yl)pyridin-4-yl)methyl)isoquinoline-1,5-diamine] | 10 to 40 | – | > 40
13 | Nc1ncc(Cl)c2cc(NCc3cccc(CC(=O)N4CCn5ccnc5C4)c3)ccc12 [Example 5442, 2-(3-(((1-amino-4-chloroisoquinolin-6-yl)amino)methyl)phenyl)-1-(5,6-dihydroimidazo[1,2-a]pyrazin-7(8H)-yl)ethan-1-one] | 10 to 40 | – | > 40
14 | Nc1nccc2c(NCc3cnc(N4CCn5c(nnc5C(F)(F)F)C4)cn3)cccc12 [Example 9002, N5-((5-(3-(trifluoromethyl)-5,6-dihydro-[1,2,4]triazolo[4,3-a]pyrazin-7(8H)-yl)pyrazin-2-yl)methyl)isoquinoline-1,5-diamine] | 0.3 to 1 | 3 to 10 | –
15 | Nc1nccc2c(NCc3cnc(N4CCn5c(nnc5C(F)(F)F)C4)nc3)cccc12 [Example 9003, N5-((2-(3-(trifluoromethyl)-5,6-dihydro-[1,2,4]triazolo[4,3-a]pyrazin-7(8H)-yl)pyrimidin-5-yl)methyl)isoquinoline-1,5-diamine] | 1 to 3 | 3 to 10 | –
16 | Nc1nccc2c(N3CCCC3c3ccc(N4CCn5c(nnc5C(F)F)C4)nc3)cccc12 (stereo not drawn) [Example 10001, 5-(2-(6-(3-(difluoromethyl)-5,6-dihydro-[1,2,4]triazolo[4,3-a]pyrazin-7(8H)-yl)pyridin-3-yl)pyrrolidin-1-yl)isoquinolin-1-amine] | 1 to 3 | – | > 40

More lines, now with the values ahead:

Row | IC50 (Human Factor XIIa) [µM] | IC50 (KLK1) [µM] | IC50 (Plasma Kallikrein) [µM] | SMILES
17 | 0.01 to 0.1 | > 4 | – | Cc1cc(N2CCn3c(nnc3C(F)(F)F)C2C)ncc1CNc1cccc2c(N)nccc12 (racemic) [Example 1303, N5-((4-Methyl-6-(8-methyl-3-(trifluoromethyl)-5,6-dihydro-[1,2,4]triazolo[4,3-a]pyrazin-7(8H)-yl)pyridin-3-yl)methyl)isoquinoline-1,5-diamine]
18 | – | 1 to 3 | – | Nc1nccc2c(NCc3cnc(N4CCn5c(nnc5C(F)(F)F)C4)c(C(F)(F)F)c3)cccc12 [Example 1306, N5-((5-(trifluoromethyl)-6-(3-(trifluoromethyl)-5,6-dihydro-[1,2,4]triazolo[4,3-a]pyrazin-7(8H)-yl)pyridin-3-yl)methyl)isoquinoline-1,5-diamine]
19 | 0.3 to 1 | 3 to 10 | – | Nc1nccc2c(NCc3cnc(N4CCn5c(nnc5C(F)(F)F)C4)cc3C3CC3)cccc12 [Example 1307, N5-((4-cyclopropyl-6-(3-(trifluoromethyl)-5,6-dihydro-[1,2,4]triazolo[4,3-a]pyrazin-7(8H)-yl)pyridin-3-yl)methyl)isoquinoline-1,5-diamine]
20 | 1 to 3 | 1 to 3 | – | Cc1nnc2n1CCN(c1ccc(CNc3cccc4c(N)nccc34)cn1)CC2 [Example 1310, N5-((6-(3-methyl-5,6,8,9-tetrahydro-7H-[1,2,4]triazolo[4,3-d][1,4]diazepin-7-yl)pyridin-3-yl)methyl)isoquinoline-1,5-diamine]
21 | 0.01 to 0.1 | 3 to 10 | – | CC1Cn2c(nnc2C(F)(F)F)CN1c1ccc(CNc2cccc3c(N)nccc23)cn1 (stereo not drawn) [Example 1311, N5-((6-(6-Methyl-3-(trifluoromethyl)-5,6-dihydro-[1,2,4]triazolo[4,3-a]pyrazin-7(8H)-yl)pyridin-3-yl)methyl)isoquinoline-1,5-diamine]
22 | 10 to 40 | 10 to 40 | – | CC(C)N1C[C@H]2C[C@@H]1CN2Cc1cc(CNc2cccc3c(N)nccc23)ccn1 [Example 4295, 5-N-[(2-{[(1R,4R)-5-isopropyl-2,5-diazabicyclo[2.2.1]heptan-2-yl]methyl}pyridin-4-yl)methyl]isoquinoline-1,5-diamine]
23 | 0.3 to 1 | – | > 40 | Nc1nccc2c(CCc3ccnc(OCC4CCn5ccnc5C4)c3)cccc12 (stereo not drawn) [Example 4452, 5-(2-(2-((5,6,7,8-tetrahydroimidazo[1,2-a]pyridin-7-yl)methoxy)pyridin-4-yl)ethyl)isoquinolin-1-amine]
24 | 40 to 100 | – | > 100 | CNC(=O)c1cc(NCc2ccnc(OCC3CCN(C)CC3)c2)cc2ccncc12 [Example 4463]
25 | 3 to 10 | – | > 100 | CN1CCC(COc2cc(CNc3ccc4cnccc4c3F)ccn2)CC1 [Example 4466, 5-fluoro-N-((2-((1-methylpiperidin-4-yl)methoxy)pyridin-4-yl)methyl)isoquinolin-6-amine]
26 | 1 to 3 | – | > 40 | Cn1c(COc2cc(CNc3cccc4c(N)nccc34)ccn2)nnc1C1CC1 [Example 4468, N5-((2-((5-cyclopropyl-4-methyl-4H-1,2,4-triazol-3-yl)methoxy)pyridin-4-yl)methyl)isoquinoline-1,5-diamine]
27 | 3 to 10 | – | > 40 | CN1CCC(COc2cc(CNc3ccc(F)c4c(N)nccc34)ccn2)CC1 [Example 4469, 8-fluoro-N5-((2-((1-methylpiperidin-4-yl)methoxy)pyridin-4-yl)methyl)isoquinoline-1,5-diamine]
28 | 10 to 40 | – | > 40 | Nc1ncc(Cl)c2cc(NCc3ccnc(N4CCn5ccnc5C4)c3)ccc12 [Example 5437, 4-chloro-N6-((2-(5,6-dihydroimidazo[1,2-a]pyrazin-7(8H)-yl)pyridin-4-yl)methyl)isoquinoline-1,6-diamine]
29 | 3 to 10 | – | > 40 | CC(C)N1CCC(CN(CCCO)C(=O)c2cccc(CNc3cccc4c(N)nccc34)c2)CC1 [Example 5441, 3-(((1-aminoisoquinolin-5-yl)amino)methyl)-N-(3-hydroxypropyl)-N-((1-isopropylpiperidin-4-yl)methyl)benzamide]
